In article PMC3740496, “Synthesis and biological activities of the respiratory chain inhibitor aurachin D and new ring versus chain analogues” (Beilstein Journal of Organic Chemistry, 2013):
Converted amounts (≈) assume the structure as drawn.

How the values were obtained:
Plasmodium falciparum = system: Plasmodium falciparum; design: method as in PMID 18922036; settings: cited from earlier work
[1] = system: HCT-116 human colon carcinoma cells; assay: Cytotoxicity, growth inhibition (MTT); type: cell-based; settings: Homo sapiens, HCT-116, 120 h, read-out: IC50: half inhibitory concentration, HCT-116
Protocol: (§1) The cytotoxic activity of aurachin D (4) and analogues 9–11 and 17–19 was evaluated in growth inhibition experiments on mammalian cell lines (Table 2). After 5 days treatment, half inhibitory concentrations (IC50) were determined for human HCT-116 colon carcinoma and human K562 myelogenous leukemia cells. […]
(§2) was further incubated for 1.5 h. The medium was then discarded and 100 µL 2-propanol/10 N HCl (250:1) was added in order to dissolve formazan granules. The absorbance at 570 nm was measured using a microplate reader (EL808, Bio-Tek Instruments Inc.) and cell viability was expressed as a percentage relative to the respective solvent control. […]

[2] = system: K562 myelogenous leukemia cells; assay: Cytotoxicity, growth inhibition (MTT); type: cell-based; settings: Homo sapiens, K562, 120 h; 5 days treatment; triplicate, mean ±SD; read-out: IC50: half inhibitory concentration, K562
Protocol: as §1, §2

[3] = system: Plasmodium falciparum FcB1 (chloroquine-resistant); assay: In vitro antiplasmodial assay ([3H]-hypoxanthine incorporation); type: cell-based; settings: Plasmodium falciparum, FCB1; triplicate (except compound 24), mean ±SD; read-out: IC50 P. falciparum FcB1
Protocol: In vitro antiplasmodial assays: The chloroquine-resistant strain FcB1/Colombia of Plasmodium falciparum was maintained in vitro on human erythrocytes in RPMI 1640 medium supplemented by 8% (v/v) heat-inactivated human serum, at 37 °C, under an atmosphere of 3% CO2, 6% O2, and 91% N2. In vitro drug susceptibility assays was measured by [3H]-hypoxanthine incorporation as described. Drugs were prepared in DMSO at a 10 mg/mL concentration. Compounds were serially diluted two-fold with 100 µL culture medium in 96-well plates. Asynchronous parasite cultures (100 µL, 1% parasitaemia and 1% final hematocrite) were then added to each well and incubated for 24 h at 37 °C prior to the addition of 0.5 µCi of [3H]- hypoxanthine (GE Healthcare, France, 1 to 5 Ci·mmol/mL) per well. After a further incubation of 24 h, plates were frozen and thawed. Cell lysates were then collected onto glass-fiber filters and counted in a liquid scintillation spectrometer. The growth inhibition for each drug concentration was determined by comparison of the radioactivity incorporated in the treated culture with that in the control culture maintained on the same plate. The concentration causing 50% growth inhibition (IC50) was obtained from the drug concentration–response curve and the results were expressed as the mean values ± standard deviations determined from several […]
independent experiments. Chloroquine diphosphate (Sigma–Aldrich) was used as antimalarial drug control. […]

[4] = system: Trypanosoma brucei gambiense strain Feo bloodstream forms; assay: Antitrypanosomal assay (resazurin); type: cell-based; settings: Trypanosoma brucei, GAMBIENSE; 72 h incubation; read-out: IC50 T. brucei gambiense
Protocol: page 10: independent experiments. Chloroquine diphosphate (Sigma–Aldrich) was used as antimalarial drug control. Antitrypanosomal activities: Bloodstream forms of Trypanosoma brucei gambiense strain Feo were cultured in HMI9 medium supplemented with 10% FCS at 37 °C under an atmosphere of 5% CO2. Antitrypanosomal assays were performed as previously described. In all experiments, log-phage cell cultures were harvested by centrifugation at 3,000g and immediately used. Drug assays were based on the conversion of a redox-sensitive dye (resazurin) to a fluorescent product by viable cells. Drug stock solutions were prepared in pure DMSO. […] After a 72 h incubation, resazurin solution was added in each well at the final concentration of 45 µM. Fluorescence was measured at 530 nm excitation and 590 nm emission wavelengths after a further 4 h incubation. Each inhibitor concentration was tested in triplicate. The percentage of inhibition of parasite growth rate was calculated by comparing the fluorescence of parasites maintained in the presence of drug to that in the absence of drug. DMSO was used as a control. IC50s were determined from the dose–response curves with drug concentrations ranging from 100 µM to 50 nM. Pentamidine was used as antitrypanosomal drug control. MIC determination: Indicator strains were obtained from the German Collection of Microorganisms and Cell Cultures (Deutsche Sammlung für Mikroorganismen und Zellkulturen, DSMZ) or were part of our internal strain collection. All microorganisms were handled under standard conditions recommended by the depositor. Overnight S10

Bacillus subtilis DSM10 = assay: MIC determination; type: cell-based; settings: Bacillus subtilis, DSM10; duplicate, mean ±SD
Protocol: (§3) MIC determination: Indicator strains were obtained from the German Collection of Microorganisms and Cell Cultures (Deutsche Sammlung für Mikroorganismen und Zellkulturen, DSMZ) or were part of our internal strain collection. All microorganisms were handled under standard conditions recommended by the depositor. Overnight […]
(§4) cultures of bacteria were prepared in EBS medium (0.5% casein peptone, 0.5% proteose peptone, 0.1% meat peptone, 0.1% yeast extract; pH 7.0). Yeasts and molds were grown in Myc medium (1% phytone peptone, 1% glucose, 50 mM
(§5) HEPES, pH 7.0). The overnight cultures of microorganisms were diluted to OD600 0.01 (bacteria) or 0.05 (yeasts/molds) in the respective growth medium. Serial dilutions of compounds were prepared as duplicates in sterile 96-well plates. The cell suspension was added and microorganisms were grown overnight on a microplate shaker (900 rpm, 30 °C or 37 °C). Growth inhibition was assessed by measuring the OD600 on a plate reader (POLARstar, BMG Labtech). MIC50 values were determined as averages relative to respective control samples by sigmoidal curve fitting. […]

Escherichia coli (TolC) = assay: MIC determination; type: cell-based; settings: read-out: MIC50 Escherichia coli (TolC)
Protocol: as §3, §4, §5

[5] = system: Escherichia coli DH5α (wt); assay: MIC determination; type: cell-based; settings: duplicate, mean ±SD
Protocol: as §3, §4, §5

[6] = system: Klebsiella pneumoniae DSM30104; assay: MIC determination; type: cell-based; settings: duplicate, mean ±SD
Protocol: as §3, §4, §5

Micrococcus luteus = assay: MIC determination; type: cell-based; settings: duplicate, mean ±SD
Protocol: as §3, §4, §5

[7] = system: Staphylococcus aureus DSM11822 (MRSA); assay: MIC determination; type: cell-based; settings: duplicate, mean ±SD
Protocol: as §3, §4, §5

[8] = system: Staphylococcus aureus Newman (MSSA); assay: MIC determination; type: cell-based; settings: duplicate, mean ±SD
Protocol: as §3, §4, §5

[9] = system: Vero cells (nontumor cells); assay: Cytotoxicity on Vero cells (MTT); type: cell-based; settings: 48 h incubation
Protocol: was further incubated for 1.5 h. The medium was then discarded and 100 µL 2-propanol/10 N HCl (250:1) was added in order to dissolve formazan granules. The absorbance at 570 nm was measured using a microplate reader (EL808, Bio-Tek Instruments Inc.) and cell viability was expressed as a percentage relative to the respective solvent control. VERO cells: VERO cells were seeded into 96-well microplates at 10^5 cells per mL in RPMI supplemented with 10% foetal calf serum.
After 24 h, the cells were washed and two microliters of two-fold serial dilutions of each compound (10 mg/mL) was added to 100 μL of medium. Cells were then incubated for 48 h at 37 ° C under a 5% CO2 atmosphere. At the end of incubation, 20 µL of MTT solution (5 mg/mL) was added to each well and further incubated for 4 h at 37 °C to allow the formation of formazan. The crystals of formazan were then dissolved with 100 µL of a freshly prepared solution of sodium dodecyl sulfate (SDS) 10% (15 mL) and HCl 1 N (150 µL). The optical density of each well was measured at 595 nm using a multiwell plate reader. The 50% inhibition concentration was then determined by curve fitting.
MMP assay: Human U-2 OS osteosarcoma cells (HTB-96) were obtained from the American Type Culture Collection (ATCC) and were cultured under the conditions recommended by the depositor. Cells from actively growing cultures were harvested and seeded at 8 × 10^3 cells per well in 96-well imaging plates (BD Falcon). After 1 d cells reached approximately 60% confluency and were treated with aurachin analogues at the assigned concentrations for 16 h. In addition, cells were stimulated with 1 µM FCCP [carbonyl cyanide 4-(trifluoromethoxy)phenylhydrazone] as a positive control 1 h prior to the measurement. For labeling, cells were washed twice with assay buffer ([…], 5.4 mM KCl, 2 mM MgCl2, 10 mM glucose, 2 mM CaCl2, 10 mM HEPES; pH 7.35) and 100 µL of a staining solution (50 nM TMRM,

Plasmodium = system: Plasmodium; design: method as in PMID 15215101; settings: read-out: antiplasmodial IC50; cited from earlier work

Question: For CC(C)=CCC/C(C)=C/CC/C(C)=C/Cc1c(O)c(C)[n+]([O-])c2ccccc12 [aurachin B], which “IC50 Plasmodium falciparum” value (Plasmodium falciparum) is on record?
Answer: around 20 ng/mL

Question: For CC(C)=CCC/C(C)=C/CC/C(C)=C/Cc1c(C)n(O)c2ccccc2c1=O [aurachin C], which “IC50 Plasmodium falciparum” value (Plasmodium falciparum) is on record?
Answer: around 20 ng/mL

Question: What about the “fold higher antiplasmodial activity compared to aurachin D” value (Plasmodium falciparum) of the same compound?
Answer: approximately 200 fold

Question: For CC(C)=CCC/C(C)=C/CC/C(C)=C/Cc1c(C)n2c(=O)[nH]c3cccc(c1=O)c32 [aurachin E], which “IC50 Plasmodium falciparum” value (Plasmodium falciparum) is on record?
Answer: around 20 ng/mL

Question: With CC(C)=CCc1c(C)[nH]c2ccccc2c1=O [compound 10] as the compound, how does the IC50 [1] read?
Answer: > 10 µg/mL

Question: And the IC50 [2]?
Answer: ~10 µg/mL (≈ 44 µM)

Question: And the IC50 [3]?
Answer: 0.55 ± 0.16 µg/mL (≈ 2.42 µM)

Question: And the IC50 [4]?
Answer: 5.8 µg/mL (≈ 25.5 µM)

Question: What about the MIC50 (Bacillus subtilis DSM10) of the same compound?
Answer: 0.22 ± 0.06 µg/mL (≈ 0.968 µM)

Question: And the MIC50 (Escherichia coli (TolC))?
Answer: 6.55 ± 1.36 µg/mL (≈ 28.8 µM)

Question: What about the MIC50 [5] of the same compound?
Answer: > 64 µg/mL

Question: What about the MIC50 [6] of the same compound?
Answer: > 64 µg/mL

Question: What about the MIC50 (Micrococcus luteus) of the same compound?
Answer: 14.3 ± 1.29 µg/mL (≈ 63 µM)

Question: And the MIC50 [7]?
Answer: 11.3 ± 1.44 µg/mL (≈ 49.7 µM)

Question: What about the MIC50 [8] of the same compound?
Answer: 9.66 ± 2.39 µg/mL (≈ 42.5 µM)

Question: For Cc1[nH]c2ccccc2c(=O)c1C [compound 11], which IC50 [1] is on record?
Answer: > 10 µg/mL

Question: And the IC50 [2]?
Answer: > 10 µg/mL

Question: What about the IC50 [3] of the same compound?
Answer: 2.3 ± 1.4 µg/mL (≈ 13.3 µM)

Question: What about the IC50 [4] of the same compound?
Answer: > 10 µg/mL

Question: And the MIC50 (Bacillus subtilis DSM10)?
Answer: 49 ± 6.26 µg/mL (≈ 283 µM)

Question: And the MIC50 (Escherichia coli (TolC))?
Answer: > 64 µg/mL

Question: And the MIC50 [5]?
Answer: > 64 µg/mL

Question: And the MIC50 [6]?
Answer: > 64 µg/mL

Question: And the MIC50 (Micrococcus luteus)?
Answer: > 64 µg/mL

Question: And the MIC50 [7]?
Answer: > 64 µg/mL

Question: What about the MIC50 [8] of the same compound?
Answer: > 64 µg/mL

Question: With Cc1c2c(c3ccccc3[n+]1[O-])O[C@H]([C@](C)(O)CCC1OC1(C)C)C2 (stereo partly shown) [compound 22] as the compound, how does the IC50 [9] read?
Answer: > 50 µg/mL

Question: With Cc1cc(=O)c2ccccc2[nH]1 [compound 23, 2-methyl-4(1H)-quinolone, reference compound] as the compound, how does the IC50 [3] read?
Answer: 7.7 ± 2.5 µg/mL (≈ 48.4 µM)

Question: What about the IC50 [4] of the same compound?
Answer: > 10 µg/mL

Question: Which results are given for Cc1[nH]c2ccccc2c(=O)c1Br [compound 24, 3-bromo-2-methyl-4(1H)-quinolone]?
Answer: IC50 [3]: 1.1 µg/mL (≈ 4.62 µM); IC50 [4]: 1.7 µg/mL (≈ 7.14 µM)

Question: Which IC50 [3] does the source give for Cc1c(C)n(O)c2ccccc2c1=O [compound 25, N-hydroxy-2,3-dimethyl-4(1H)-quinolone] here?
Answer: 2.7 ± 1.3 µg/mL (≈ 14.3 µM)

Question: And the IC50 [4]?
Answer: > 10 µg/mL

Question: For CC(C)=CCC/C(C)=C/CC/C(C)=C/CO [farnesol], which IC50 (Plasmodium) is on record?
Answer: 64 µM
